# Tests used:
# [1] = test system: lung tumors; details: mice; cited from earlier work
# [2] = test system: mammary tumors; details: rats; cited from earlier work
# [3] = test system: PLZF-RARα APL cells; details: cited from earlier work
# [4] = test system: HDLP; test: Histone deacetylase assay with [3H] acetyl-labeled histone substrate; format: biochemical, Aquifex aeolicus; details: in vitro
inhibition of HDLP histone deacetylase activity [4],Compound,preventing the formation of lung tumors [1],preventing the formation of mammary tumors [2],responsiveness to retinoic acid-induced differentiation [3]
–,suberoylanilide hydroxamic acid [SAHA],effective,effective,–
inhibited,"CC(/C=C/C(=O)NO)=C\[C@@H](C)C(=O)c1ccc(N(C)C)cc1 [TSA, trichostatin A]",–,–,enhances their responsiveness

# Source: patent US7124068B2, “Crystal structure of a deacetylase and inhibitors thereof” (Sloan-Kettering Institute for Cancer Research, priority 1999, dated 2006)
